Tests used:
Test in all cases: GR value, 72 h; higher = faster growth (1 = untreated, <0 = killing);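 further: breast cancer and non-malignant breast epithelial lines, nine half-log doses, viable cells counted by Hoechst and LIVE/DEAD dye imaging versus time-zero plates and DMSO controls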
[1] = compound: CCOc1cc2ncc(C#N)c(Nc3ccc(OCc4ccccn4)c(Cl)c3)c2cc1NC(=O)/C=C/CN(C)C [Neratinib/HKI272]
[2] = compound: CCc1cnn2c(NCc3ccc[n+]([O-])c3)cc(N3CCCC[C@H]3CCO)nc12
[3] = compound: CN(C)C(=O)c1cc2cnc(Nc3ccc(N4CCNCC4)cn3)nc2n1C1CCCC1 [LEE011/Ribociclib]
[4] = compound: CN(C)C/C=C/C(=O)Nc1ccc(C(=O)N2CCC[C@@H](Nc3ncc(Cl)c(-c4c[nH]c5ccccc45)n3)C2)cc1 [THZ531]
[5] = compound: CN(C)C/C=C/C(=O)Nc1ccc(C(=O)Nc2cccc(Nc3ncc(Cl)c(-c4c[nH]c5ccccc45)n3)c2)cc1 [THZ1]
[6] = compound: CN1CC[C@H](c2c(O)cc(O)c3c(=O)cc(-c4ccccc4Cl)oc23)[C@H](O)C1 [Flavopiridol]

With HCC202 the GR value ([1]; 0.3162 µM) was 0.214 GR, the GR value ([1]; 1 µM) was 0.194 GR and the GR value ([1]; 3.162 µM) was 0.0934 GR. The GR value ([2]; 0.0001 µM) was 0.96 GR, the GR value ([2]; 0.0003162 µM) was 0.998 GR and the GR value ([2]; 0.001 µM) was 1.06 GR. The GR value ([2]; 0.003162 µM) was 1.03 GR, the GR value ([2]; 0.01 µM) was 0.784 GR and the GR value ([2]; 0.03162 µM) was 0.0982 GR. The GR value ([2]; 0.1 µM) was 0.14 GR, the GR value ([2]; 0.3162 µM) was 0.0849 GR and the GR value ([2]; 1 µM) was 0.0949 GR. For the same cell line, the GR value ([3]; 0.001 µM) was 0.881 GR, the GR value ([3]; 0.003162 µM) was 1.03 GR and the GR value ([3]; 0.01 µM) was 1.03 GR. For the same cell line, the GR value ([3]; 0.03162 µM) was 0.891 GR, the GR value ([3]; 0.1 µM) was 1.03 GR and the GR value ([3]; 0.3162 µM) was 0.883 GR. It also gave a GR value ([3]; 1 µM) of 0.833 GR, a GR value ([3]; 3.162 µM) of 0.813 GR and a GR value ([3]; 10 µM) of 0.829 GR. It also gave a GR value ([4]; 0.0001 µM) of 1.12 GR, a GR value ([4]; 0.0003162 µM) of 0.893 GR and a GR value ([4]; 0.001 µM) of 0.907 GR. It also gave a GR value ([4]; 0.003162 µM) of 1.12 GR, a GR value ([4]; 0.01 µM) of 0.883 GR and a GR value ([4]; 0.03162 µM) of 0.809 GR. For the same cell line, the GR value ([4]; 0.1 µM) was 0.411 GR, the GR value ([4]; 0.3162 µM) was 0.0512 GR and the GR value ([4]; 1 µM) was 0.151 GR. It also gave a GR value ([5]; 0.0001 µM) of 0.915 GR, a GR value ([5]; 0.0003162 µM) of 1.02 GR and a GR value ([5]; 0.001 µM) of 0.961 GR. The GR value ([5]; 0.003162 µM) was 0.866 GR, the GR value ([5]; 0.01 µM) was 0.8 GR and the GR value ([5]; 0.03162 µM) was 0.397 GR. For the same cell line, the GR value ([5]; 0.1 µM) was 0.154 GR, the GR value ([5]; 0.3162 µM) was 0.0808 GR and the GR value ([5]; 1 µM) was 0.0457 GR. It also gave a GR value ([6]; 0.0001 µM) of 1.09 GR, a GR value ([6]; 0.0003162 µM) of 1.05 GR and a GR value ([6]; 0.001 µM) of 0.845 GR. The GR value ([6]; 0.003162 µM) was 0.773 GR, the GR value ([6]; 0.01 µM) was 0.976 GR and the GR value ([6]; 0.03162 µM) was 0.893 GR. For the same cell line, the GR value ([6]; 0.1 µM) was 0.68 GR, the GR value ([6]; 0.3162 µM) was 0.24 GR and the GR value ([6]; 1 µM) was 0.0609 GR.

— the supplement of paper PMC9663587
